From article PMC12615753, “Glutathione as a taste modulator: molecular mechanisms of interaction with umami and sweet taste receptors” (Food Chemistry: Molecular Sciences, 2025) come the findings set out here.

One may read the EC50 as the concentration at which the effect is half-maximal.

For the experiment, the target named is T1, hTAS1R1/rTAS1R3 (UniProt Q7RTX1+Q923K1).
T1 construct: UniProtKB number Q7RTX1–1); The cDNA coding region of rTAS1R3 was synthesized with optimized-codon usage for human expression; expressed in transfected cells; host or cells: HEK293T/17 (ATCC CRL-11268)
T1 sequence (Q7RTX1 21-841): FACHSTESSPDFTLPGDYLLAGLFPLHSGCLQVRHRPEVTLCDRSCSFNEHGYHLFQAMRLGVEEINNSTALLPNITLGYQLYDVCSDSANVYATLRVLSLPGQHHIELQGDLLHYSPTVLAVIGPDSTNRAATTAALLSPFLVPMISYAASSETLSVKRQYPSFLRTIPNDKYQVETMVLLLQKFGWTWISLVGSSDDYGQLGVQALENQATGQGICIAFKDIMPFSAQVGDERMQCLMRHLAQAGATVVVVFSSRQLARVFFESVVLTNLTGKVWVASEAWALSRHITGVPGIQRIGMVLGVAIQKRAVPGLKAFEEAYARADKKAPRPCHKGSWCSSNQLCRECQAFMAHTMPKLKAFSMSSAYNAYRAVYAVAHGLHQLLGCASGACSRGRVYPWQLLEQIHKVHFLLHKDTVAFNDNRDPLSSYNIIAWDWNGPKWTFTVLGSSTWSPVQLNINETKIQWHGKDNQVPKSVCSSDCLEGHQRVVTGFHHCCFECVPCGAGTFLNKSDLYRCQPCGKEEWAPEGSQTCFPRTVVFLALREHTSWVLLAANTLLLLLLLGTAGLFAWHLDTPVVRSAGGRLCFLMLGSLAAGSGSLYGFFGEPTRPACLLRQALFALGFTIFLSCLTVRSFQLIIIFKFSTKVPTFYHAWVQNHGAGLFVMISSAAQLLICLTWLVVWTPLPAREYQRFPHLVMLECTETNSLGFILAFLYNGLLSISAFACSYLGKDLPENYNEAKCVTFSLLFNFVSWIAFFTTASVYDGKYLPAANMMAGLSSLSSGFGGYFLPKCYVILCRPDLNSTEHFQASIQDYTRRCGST
T1 sequence (Q923K1 21-858): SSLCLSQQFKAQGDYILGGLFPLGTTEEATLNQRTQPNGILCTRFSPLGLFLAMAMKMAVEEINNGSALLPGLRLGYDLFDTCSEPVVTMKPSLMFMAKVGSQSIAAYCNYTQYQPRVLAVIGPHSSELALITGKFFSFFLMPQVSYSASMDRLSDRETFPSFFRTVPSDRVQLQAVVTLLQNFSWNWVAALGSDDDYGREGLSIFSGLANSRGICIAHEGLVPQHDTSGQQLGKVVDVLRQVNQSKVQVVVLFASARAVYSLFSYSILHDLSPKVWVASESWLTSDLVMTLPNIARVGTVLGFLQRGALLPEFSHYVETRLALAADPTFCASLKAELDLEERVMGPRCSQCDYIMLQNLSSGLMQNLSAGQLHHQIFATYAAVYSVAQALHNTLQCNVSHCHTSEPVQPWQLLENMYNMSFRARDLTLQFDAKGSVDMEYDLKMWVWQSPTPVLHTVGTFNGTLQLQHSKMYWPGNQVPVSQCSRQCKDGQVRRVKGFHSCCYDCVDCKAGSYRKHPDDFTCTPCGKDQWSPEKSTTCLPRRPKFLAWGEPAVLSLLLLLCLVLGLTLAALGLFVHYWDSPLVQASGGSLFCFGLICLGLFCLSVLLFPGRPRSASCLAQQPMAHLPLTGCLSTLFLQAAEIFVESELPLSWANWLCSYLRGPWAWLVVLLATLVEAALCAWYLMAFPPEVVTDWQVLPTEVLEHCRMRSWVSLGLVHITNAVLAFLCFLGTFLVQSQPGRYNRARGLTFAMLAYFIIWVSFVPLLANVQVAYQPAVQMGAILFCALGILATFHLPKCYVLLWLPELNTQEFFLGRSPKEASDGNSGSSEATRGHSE
The experiment in a line: Calcium assay (GCaMP6s, Gα15i2) in transiently transfected HEK293T/17 cells. Format: cell-based, human, rat. Here is the method: To this end, hTAS1R1/rTAS1R3 and the chimeric G protein Gα15i2 were transiently expressed in HEK293T cells. Cellular responses were assessed via calcium imaging using a fluorescent protein calcium biosensor (GCaMP6s) and compared with those of mock-transfected cells.

For `N[C@@H](CCC(=O)N[C@@H](CS)C(=O)NCC(=O)O)C(=O)O` [GSH, γ-L-glutamyl-L-cysteinyl-glycine], the “maximal response, fold lower than that elicited by L-Glu” value worked out at 2.2 fold. Also, the EC50 (GSH alone, Fig. 6C) stood at 3.43 ± 0.098 mM. For the same compound, the EC50 (GSH alone, Fig. 6D) worked out at 4.36 ± 0.308 mM. Under “GSH alone, Fig. 6E”, the EC50 was 3.21 ± 0.138 mM. In addition, for the setting “WT, GSH”, the EC50 is 2.52 ± 0.238 mM, the “Max ∆F/F0” value came out at 0.23 ± 0.01 and the “R1 = mutant EC50/WT EC50” value is listed as 1.0. The EC50 (WT, GSH alone, Fig. 4C) was 4.25 ± 0.5 mM. Where the note is “agonist alone, Fig. 1, Fig. S2”, the EC50 turned out to be 2.15 ± 0.087 mM and the “max ∆F/F0” value is 0.46 ± 0.01. The “effect on the dose-response curves to L-Glu” value (in the presence of 3 mM and 10 mM GSH, Fig. 6F) was “a leftward shift and a decrease in the EC50 values”.

On to `CCCC(CCC)NC(=O)c1ccc2c(c1)OCO2` [S807, N-(heptan-4-yl)benzo[d][1,3]dioxole-5-carboxamide, reference compound], for which the EC50 (WT, S807 alone, Fig. 4E) was 0.00125 ± 0.00012 mM. For the same compound, under “agonist alone, Fig. 1, Fig. S2”, the EC50 is 0.00102 ± 8e-05 mM and the “max ∆F/F0” value was 1.87 ± 0.03.
